Measured values from US20060275812A1, “Assay for agonists and antagonists of ion channels and for regulators of genetic expression” (University of Pittsburgh of the Commonwealth System of …, priority 2005, published 2006).
“Also recorded” adds a separate entry of the source.

Legend:
rat TRPV1 receptor = rat TRPV1 receptor (Rattus norvegicus, UniProt O35433); assay: Whole cell patch clamp recordings of capsaicin induced currents
TRPV1 [1] = target: T1, TRPV1 (Rattus norvegicus, UniProt O35433); assay: Intracellular calcium measurement (FURA-2); assay type: cell-based
T1 construct: expressed in transfected cells; host or cells: ICP4/ICP27-complementing 7b cells (Vero-derived) infected with HSV-1 vector vTT
Procedure: Free intracellular calcium was measured by photon scanning on a dual excitation fluorimeter (PTI, Lawrenceville, N.J.). vTT or QOZ infected 7b cells were plated in 6 well plates containing 13.5×20 mm coverslips. Infected cells (8 hpi, 3 PFU/cell) were rinsed with 1× Hank's balanced salt solution (HBSS) and loaded with 2 μM FURA-2 (Molecular Probes Inc., Eugene, Oreg.) (Sneddon et al., 2000) for 1 hour at 37° C. in a 5% CO2 incubator. Coverslips with FURA-2 loaded cells were then placed in a cuvette containing HBBS and then separately subjected to capsaicin at either 3 or 0.3 μM concentrations. Calcium flux following the application of each concentration of capsaicin was measured at 2 Hz and graphed. Results were calibrated by adding 5 μM ionomycin to obtain the maximum fluorescence ratio, followed by addition of 10 mM EGTA to obtain the minimum fluorescence ratio. A Kd of FURA-2 for calcium of 224 nM was assumed.

TRPV1 [2] = target: T1, TRPV1; assay: Viral growth assay (vTT / vHG titers by plaque assay); assay type: cell-based
TRPV1 [3] = target: T1, TRPV1; assay: Capsaicin selection against vTT in mixed vHG:vTT infections; assay type: cell-based
[4] = vTT infected cells, BIM pre-incubation, n=3
[5] = vTT infected cells, mean±SEM, n=8
[6] = vTT infected 7b cells, 5 μM ionomycin

Chain of rat TRPV1 receptor (O35433 whole entry): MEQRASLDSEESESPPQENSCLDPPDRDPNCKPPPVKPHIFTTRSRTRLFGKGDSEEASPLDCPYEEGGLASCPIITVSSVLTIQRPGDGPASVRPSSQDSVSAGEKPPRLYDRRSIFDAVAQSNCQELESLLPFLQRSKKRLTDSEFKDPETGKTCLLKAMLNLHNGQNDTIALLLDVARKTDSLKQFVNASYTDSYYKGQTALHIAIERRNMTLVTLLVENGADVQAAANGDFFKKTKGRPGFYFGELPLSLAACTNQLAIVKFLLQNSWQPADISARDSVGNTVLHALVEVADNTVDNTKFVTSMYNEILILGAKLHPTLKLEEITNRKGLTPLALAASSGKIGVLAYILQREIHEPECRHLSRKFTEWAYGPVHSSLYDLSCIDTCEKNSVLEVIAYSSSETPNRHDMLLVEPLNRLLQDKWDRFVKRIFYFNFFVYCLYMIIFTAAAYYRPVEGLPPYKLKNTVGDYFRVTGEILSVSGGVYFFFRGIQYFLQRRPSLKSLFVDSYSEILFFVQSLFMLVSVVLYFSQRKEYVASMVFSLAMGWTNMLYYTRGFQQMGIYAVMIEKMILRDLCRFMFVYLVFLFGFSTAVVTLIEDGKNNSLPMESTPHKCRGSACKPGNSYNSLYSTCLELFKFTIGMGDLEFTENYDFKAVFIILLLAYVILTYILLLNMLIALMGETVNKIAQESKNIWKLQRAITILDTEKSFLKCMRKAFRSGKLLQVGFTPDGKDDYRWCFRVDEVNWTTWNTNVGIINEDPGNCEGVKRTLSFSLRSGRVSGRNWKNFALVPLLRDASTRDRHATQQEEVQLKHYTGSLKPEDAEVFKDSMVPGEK
T1 sequence (O35433 whole entry): as above

CN(C)CCCn1cc(C2=C(c3c[nH]c4ccccc34)C(=O)NC2=O)c2ccccc21.Cl [BIM, bisindolylmaleimide I HCl]
effect of pre-incubation on capsaicin currents (rat TRPV1 receptor; vTT infected 7b cells, compared to BIM untreated): significantly lower amplitude and rapidly desensitizing currents | Capsaicin (nA) (rat TRPV1 receptor; [4]): −2.2 ± 1.2 nA | Capsaicin Desensitization Time-course (tau, s) (rat TRPV1 receptor; [4]): 53.4 ± 15.4 s

O=C(O)CN(CCOCCOCCN(CC(=O)O)CC(=O)O)CC(=O)O [EGTA]
intracellular calcium signal after capsaicin and ionomycin (TRPV1 [1]; vTT infected 7b cells, 10 mM EGTA): return to baseline levels

CCCC(=O)O[C@@H]1[C@@H](C)[C@@]2(O)[C@@H](C=C(CO)C[C@]3(O)C(=O)C(C)=C[C@@H]23)[C@@H]2C(C)(C)[C@]12OC(=O)CCC [PDBu, phorbol 12,13-dibutyrate]
effect on capsaicin current after the first phase of desensitization (rat TRPV1 receptor; vTT infected 7b cells, PDBu 5 μM): did not affect the current; also recorded: could not be enhanced

C=C(C)[C@]12C[C@@H](C)[C@@]34O[C@](Cc5ccccc5)(O[C@@H]1[C@@H]3C=C(COC(=O)Cc1ccc(O)c(OC)c1)C[C@]1(O)C(=O)C(C)=C[C@@H]41)O2 [RTX, resiniferatoxin]
growth ratio (GR), highest observed difference (TRPV1 [2]; 1 μM RTX, 72 hpi, p<0.05, n=4): 474 | capsaicin dose relative to RTX dose giving similar reduction in vTT viral titers (TRPV1 [2]; nanomolar RTX, all time points): ~100 fold

COc1cccc(NC(=O)/C=C/c2ccc(Cl)cc2)c1 [SB-366791]
vTT viral titers in the presence of capsaicin (TRPV1 [2]; 1 μM and 10 μM SB-366791 + 0.5 μM capsaicin, all time points, p<0.05, n=4): dose dependent rescue | replication of control vector vHG (TRPV1 [2]; CAP and SB-366791 together): did not affect | replication of vHG or vTT, antagonist alone (TRPV1 [2]; SB-366791 alone at 1 and 10 μM): did not affect

COc1cc(CNC(=O)CCCC/C=C/C(C)C)ccc1O [capsaicin]
Capsaicin (nA) (rat TRPV1 receptor; no virus (uninfected cells)): No | response to capsaicin stimulation (rat TRPV1 receptor; vHG (control) infected 7b cells): do not respond; also recorded: did not respond | Capsaicin (nA) (rat TRPV1 receptor; vHG infected cells): No | inward current following stimulation with capsaicin (rat TRPV1 receptor; vTT infected 7b cells, 0.5 μM capsaicin, FIG. 3 trace): 9 nA | Capsaicin (nA) (rat TRPV1 receptor; [5]): −6.0 ± 0.6 nA | Capsaicin Desensitization Time-course (tau, s) (rat TRPV1 receptor; [5]): 280.6 ± 45.1 s | intracellular calcium response (TRPV1 [1]; QOZ (control) infected cells, 0.3 or 3 μM capsaicin): no effect | intracellular calcium (TRPV1 [1]; vTT infected 7b cells, 8 hpi, 3 μM capsaicin): significant increase | intracellular calcium response (TRPV1 [1]; vTT infected 7b cells, 0.3 μM capsaicin, versus 3 μM): smaller response | vHG (GFP+) percent output after two passages (TRPV1 [3]; 3 μM capsaicin, 0.005% vHG input (1:20,000 vHG:vTT)): 95% | vHG (GFP+) percent output after one passage (TRPV1 [3]; 3 μM capsaicin, 0.005% vHG input (1:20,000 vHG:vTT), 72 hpi): 66% | vHG proportion after two passages (TRPV1 [3]; capsaicin, 1:100,000 vHG input): 40% | lowest concentration with significant differences in replication between vHG and vTT (TRPV1 [2]): 0.3 µM | vTT replication (TRPV1 [2]): specifically inhibited | vHG titers (TRPV1 [2]; 3 μM CAP alone): without affecting | growth ratio (GR), vHG to vTT virus yield, greatest differential (TRPV1 [2]; 3 μM capsaicin, 72 hpi, p<0.05, n=4): ~500 fold

C[C@H](CCC(=O)O)C[C@H](C)C[C@H](C)C(=O)/C=C(\O)[C@H](C)C[C@H](C)C/C=C/[C@@H](C)[C@@H](O)[C@@H](C)[C@@H](O)C[C@@H]1CC[C@@](C)([C@H]2CC[C@@](C)([C@@H](C)O)O2)O1 [ionomycin]
calcium influx (TRPV1 [1]; QOZ infected cells, 5 μM ionomycin): maximal calcium influx | intracellular calcium response after 0.3 μM capsaicin (TRPV1 [1]; [6]): further increased | intracellular calcium response after 3 μM capsaicin (TRPV1 [1]; [6]): did not further increase

N.N.N.N.N.N.N.N.N.N.N.N.N.N.[Cl-].[Cl-].[Cl-].[Cl-].[Cl-].[Cl-].[O-2].[O-2].[Ru+3].[Ru+3].[Ru+4] [ruthenium red]
antagonism of capsaicin-induced vTT specific currents (rat TRPV1 receptor; vTT infected 7b cells, RuR 5 μM in FIG. 3): brought the current back to baseline; also recorded: antagonized | replication of vTT in the presence of capsaicin (TRPV1 [2]): completely restored | vector replication, antagonist alone (TRPV1 [2]): unaffected
